Test results as given in EPA's ToxValDB 9.5 (doi:10.2903/j.efsa.2008.144r).
≈ marks a conversion by molar mass, not a printed value.

Tests used:
Aphidius rhopalosiphi = experiment: LR50; higher = less toxic; details: not reported; mortality
Lepomis macrochirus = details: acute; duration: 96 hours; mortality
Apis mellifera = details: acute; duration: 48 hours; oral; unspecified; mortality
Pleurozium sp. = details: acute; duration: 72 hours; biomass
Oryctolagus sp. = details: developmental; development
Daphnia magna = details: acute; duration: 48 hours; reproduction
Zea sp. = details: not reported; other
Oncorhynchus mykiss = details: chronic/long-term; duration: 94 days
Bibionidae = details: chronic/long-term; duration: 20 days

CC(Cc1ccc(C(C)(C)C)cc1)CN1C[C@@H](C)O[C@@H](C)C1 (stereo partly drawn) [(2R,6S)-Fenpropimorph] was tested, and the LR50 (Aphidius rhopalosiphi) was 25.7 g/ha, the LC50 (Lepomis macrochirus) was 2.3 µg/mL (≈ 7.58 µM) and the LD50 (Rattus norvegicus; acute, oral, mortality) was 2230 mg/kg. For the same compound, the NOAEL (Rattus norvegicus; chronic, duration: 2 years, organ weight) was 0.3 mg/kg-day, the NOAEC (Rattus norvegicus; reproduction developmental, duration: 24 months, reproduction) was 16 mg/kg-day and the NOAEL (Rattus norvegicus; subchronic, duration: 90 days, oral, clinical chemistry) was 0.7 mg/kg-day. For the same compound, the LD50 (Apis mellifera) was > 95.6 µg/piece, the NOEC (Pleurozium sp.) was 0.005 mg/L and the NOAEL (Oryctolagus sp.) was 15 mg/kg-day. The LC50 (Tagia sp.; acute, duration: 14 days, mortality) was > 1000 mg/kg, the NOEC (Tagia sp.; chronic/long-term) was 9.92 mg/kg and the NOEC (Daphnia magna) was 0.024 mg/L. It also gave an LEL (Zea sp.) of 1690 g/ha, an NOEC (Oncorhynchus mykiss) of 0.00016 mg/L and an NOEC (Bibionidae) of 0.13 mg/L. The LD50 (Colinus virginianus; acute, oral, mortality) was > 2000 mg/kg and the NOEC (Colinus virginianus; reproduction developmental) was > 30.3 mg/kg-day.
